Measured values as given in ChEMBL document CHEMBL1155961, “Novel 4-aryl-pyrido[1,2-c]pyrimidines with dual SSRI and 5-HT1A activity: part 2” (Eur J Med Chem, 2009).
Calls of active or inactive are those of the source. No cut-off for these calls is given here.

Experiments:
[1] = biological target: T1, 5-hydroxytryptamine receptor 1A (Rattus norvegicus, UniProt P19327); assay: Displacement of [3H]8-OH-DPAT from 5-HT1A receptor in rat hippocampus; assay type: tissue-based
T1 sequence (P19327 whole entry): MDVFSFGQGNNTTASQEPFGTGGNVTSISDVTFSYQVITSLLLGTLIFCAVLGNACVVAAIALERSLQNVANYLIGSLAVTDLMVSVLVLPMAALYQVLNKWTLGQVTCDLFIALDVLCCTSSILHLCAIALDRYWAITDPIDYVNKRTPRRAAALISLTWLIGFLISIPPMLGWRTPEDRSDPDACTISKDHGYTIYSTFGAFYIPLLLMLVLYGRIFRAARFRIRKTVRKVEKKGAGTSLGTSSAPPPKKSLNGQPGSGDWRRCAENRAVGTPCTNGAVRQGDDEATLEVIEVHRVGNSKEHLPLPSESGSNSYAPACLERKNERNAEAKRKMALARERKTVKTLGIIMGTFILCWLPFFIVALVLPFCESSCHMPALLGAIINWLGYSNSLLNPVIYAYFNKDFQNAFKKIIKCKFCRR

[2] = biological target: Sodium-dependent serotonin transporter (Rattus norvegicus, UniProt P31652); assay: Displacement of [3H]citalopram from SERT in rat cerebral cortex by liquid scintillation counting; assay type: tissue-based
Chain of Sodium-dependent serotonin transporter (P31652 whole entry): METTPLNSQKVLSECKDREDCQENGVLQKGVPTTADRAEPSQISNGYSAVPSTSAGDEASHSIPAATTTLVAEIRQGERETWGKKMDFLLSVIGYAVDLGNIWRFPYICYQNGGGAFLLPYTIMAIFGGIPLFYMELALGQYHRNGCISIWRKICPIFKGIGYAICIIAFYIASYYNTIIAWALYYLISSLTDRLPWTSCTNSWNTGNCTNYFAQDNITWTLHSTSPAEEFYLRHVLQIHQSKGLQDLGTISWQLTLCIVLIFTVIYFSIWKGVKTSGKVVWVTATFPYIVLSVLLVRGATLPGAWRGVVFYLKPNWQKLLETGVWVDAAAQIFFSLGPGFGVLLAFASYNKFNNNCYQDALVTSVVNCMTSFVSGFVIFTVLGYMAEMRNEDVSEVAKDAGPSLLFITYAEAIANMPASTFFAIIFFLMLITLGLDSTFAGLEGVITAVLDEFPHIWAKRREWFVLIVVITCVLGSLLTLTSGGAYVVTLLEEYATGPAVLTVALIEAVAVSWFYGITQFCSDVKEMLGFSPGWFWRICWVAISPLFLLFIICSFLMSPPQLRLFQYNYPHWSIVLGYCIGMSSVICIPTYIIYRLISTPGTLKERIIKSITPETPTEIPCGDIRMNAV

Mus musculus [3] = assay: Effect on hypothermia in Swiss albino mouse assessed as change in rectal body temperature at 10 mg/kg, ip after 60 mins by inducible hypothermia test; assay type: functional, organism-based; design: dose 10 mg/kg
Mus musculus [4] = assay: Effect on hypothermia in Swiss albino mouse assessed as change in rectal body temperature at 10 mg/kg, ip after 30 mins by inducible hypothermia test; assay type: functional, organism-based; design: dose 10 mg/kg
Mus musculus [5] = assay: Effect on hypothermia in Swiss albino mouse assessed as change in rectal body temperature at 10 mg/kg, ip after 120 mins by inducible hypothermia test; assay type: functional, organism-based; design: dose 10 mg/kg
Mus musculus [6] = assay: Effect on hypothermia in Swiss albino mouse assessed as change in rectal body temperature at 20 mg/kg, ip after 30 mins by inducible hypothermia test; assay type: functional, organism-based; design: dose 20 mg/kg
Mus musculus [7] = assay: Effect on hypothermia in Swiss albino mouse assessed as change in rectal body temperature at 10 mg/kg, ip after 90 mins by inducible hypothermia test; assay type: functional, organism-based; design: dose 10 mg/kg
Mus musculus [8] = assay: Effect on hypothermia in Swiss albino mouse assessed as change in rectal body temperature at 5 mg/kg, ip after 120 mins by inducible hypothermia test; assay type: functional, organism-based; design: dose 5 mg/kg
Mus musculus [9] = organism: Mus musculus; settings: Swiss albino, 20 mg/kg
Mus musculus [10] = organism: Mus musculus; settings: Swiss albino, 20 mg/kg; remark: listed apart in the source
Mus musculus [11] = assay: Effect on hypothermia in Swiss albino mouse assessed as change in rectal body temperature at 20 mg/kg, ip after 90 mins by inducible hypothermia test; assay type: functional, organism-based; design: dose 20 mg/kg
Mus musculus [12] = assay: Effect on hypothermia in Swiss albino mouse assessed as change in rectal body temperature at 20 mg/kg, ip after 120 mins by inducible hypothermia test; assay type: functional, organism-based; design: dose 20 mg/kg
Mus musculus [13] = assay: Effect on hypothermia in Swiss albino mouse assessed as change in rectal body temperature at 5 mg/kg, ip after 30 mins by inducible hypothermia test; assay type: functional, organism-based; design: dose 5 mg/kg
Mus musculus [14] = organism: Mus musculus; settings: Swiss albino, 20 mg/kg; remark: listed apart in the source
Mus musculus [15] = assay: Effect on hypothermia in Swiss albino mouse assessed as change in rectal body temperature at 20 mg/kg, ip after 60 mins by inducible hypothermia test; assay type: functional, organism-based; design: dose 20 mg/kg
Mus musculus [16] = assay: Effect on hypothermia in Swiss albino mouse assessed as change in rectal body temperature at 5 mg/kg, ip after 90 mins by inducible hypothermia test; assay type: functional, organism-based; design: dose 5 mg/kg
Mus musculus [17] = organism: Mus musculus; settings: Swiss albino, 20 mg/kg; remark: listed apart in the source
Mus musculus [18] = assay: Effect on hypothermia in Swiss albino mouse assessed as change in rectal body temperature at 5 mg/kg, ip after 60 mins by inducible hypothermia test; assay type: functional, organism-based; design: dose 5 mg/kg
Mus musculus [19] = assay: Effect on hypothermia in Swiss albino mouse assessed as change in rectal body temperature at 10 mg/kg, ip dosed 15 mins after 0.1 mg/kg, sc WAY 100635 challenge measured after 30 mins by inducible hypothermia test; assay type: functional, organism-based
Mus musculus [20] = assay: Antidepressant activity in Swiss albino mouse assessed as reduction of immobility time at 5 mg/kg, ip administered 30 mins before test measured 6 mins test session after 2 mins habituation period by forced swimming test; assay type: functional, organism-based; design: dose 5 mg/kg
Mus musculus [21] = assay: Effect on spontaneous locomotor activity in Swiss albino mouse assessed as number of light-beam crossings in actiometers pretreated for 30 mins at 10 mg/kg, ip measured during 6 mins post drug dose; assay type: functional; settings: route intraperitoneal
Mus musculus [22] = assay: Effect on spontaneous locomotor activity in Swiss albino mouse assessed as number of light-beam crossings in actiometers pretreated for 30 mins at 10 mg/kg, ip measured during 30 mins post drug dose; assay type: functional; settings: route intraperitoneal
Mus musculus [23] = assay: Effect on hypothermia in Swiss albino mouse assessed as change in rectal body temperature at 10 mg/kg, ip dosed 15 mins after 0.1 mg/kg, sc WAY 100635 challenge measured after 60 mins by inducible hypothermia test; assay type: functional, organism-based
Mus musculus [24] = assay: Antidepressant activity in Swiss albino mouse assessed as reduction of immobility time at 10 mg/kg, ip administered 30 mins before test measured 6 mins test session after 2 mins habituation period by forced swimming test; assay type: functional; design: scale not given: the % may be the effect or the level left
Mus musculus [25] = assay: Antidepressant activity in Swiss albino mouse assessed as reduction of immobility time at 1 mg/kg, sc administered 30 mins before test measured 6 mins test session after 2 mins habituation period by forced swimming test; assay type: functional; design: scale not given: the % may be the effect or the level left; settings: route subcutaneous
Mus musculus [26] = assay: Antidepressant activity in Swiss albino mouse assessed as reduction of immobility time at 2 mg/kg, sc administered 30 mins before test measured 6 mins test session after 2 mins habituation period by forced swimming test; assay type: functional; design: scale not given: the % may be the effect or the level left; settings: route subcutaneous
Mus musculus [27] = assay: Effect on hypothermia in Swiss albino mouse assessed as change in rectal body temperature at 20 mg/kg, ip dosed 15 mins after 0.1 mg/kg, sc WAY 100635 challenge measured after 60 mins by inducible hypothermia test; assay type: functional, organism-based
Mus musculus [28] = assay: Antidepressant activity in Swiss albino mouse assessed as reduction of immobility time at 20 mg/kg, ip administered 30 mins before test measured 6 mins test session after 2 mins habituation period by forced swimming test; assay type: functional; design: scale not given: the % may be the effect or the level left; settings: route intraperitoneal
Mus musculus [29] = assay: Effect on hypothermia in Swiss albino mouse assessed as change in rectal body temperature at 20 mg/kg, ip dosed 15 mins after 0.1 mg/kg, sc WAY 100635 challenge measured after 30 mins by inducible hypothermia test; assay type: functional, organism-based
Mus musculus [30] = assay: Effect on spontaneous locomotor activity in Swiss albino mouse assessed as number of light-beam crossings in actiometers pretreated for 30 mins at 20 mg/kg, ip measured during 6 mins post drug dose; assay type: functional; settings: route intraperitoneal
Mus musculus [31] = assay: Effect on spontaneous locomotor activity in Swiss albino mouse assessed as number of light-beam crossings in actiometers pretreated for 30 mins at 20 mg/kg, ip measured during 30 mins post drug dose; assay type: functional; settings: route intraperitoneal

Row | Structure (SMILES) | Ki [1] | Ki [2] | deltaT (Mus musculus [3]) | deltaT (Mus musculus [4]) | deltaT (Mus musculus [5]) | deltaT (Mus musculus [7]) | deltaT (Mus musculus [8]) | deltaT (Mus musculus [13]) | deltaT (Mus musculus [16]) | deltaT (Mus musculus [18]) | other results
1 | Cc1[nH]c2ccccc2c1C1CCN(CCCCn2c(=O)c(-c3ccccc3)c3n(c2=O)CCCC3)CC1 | 1400 nM | 274 nM |  |  |  |  |  |  |  |  | 
2 | COc1ccc(-c2c3n(c(=O)n(CCCCN4CCC(c5c[nH]c6ccccc56)CC4)c2=O)CCCC3)cc1 | 20.5 nM | 71.6 nM | -0.5 °C | -0.7 °C | -0.3 °C | -0.4 °C | -0.1 °C | -0.5 °C | -0.2 °C | -0.2 °C | deltaT (Mus musculus [6]): -0.6 °C; deltaT (Mus musculus [9]): -0.5 °C; deltaT (Mus musculus [10]): -0.2 °C; deltaT (Mus musculus [11]): -0.4 °C; deltaT (Mus musculus [12]): -0.3 °C; deltaT (Mus musculus [14]): 0.6 °C; deltaT (Mus musculus [15]): -0.7 °C; deltaT (Mus musculus [17]): -0.3 °C
3 | Cc1ccc(-c2c3n(c(=O)n(CCCCN4CCC(c5c[nH]c6ccccc56)CC4)c2=O)CCCC3)cc1 | 48.3 nM | 76.7 nM | -0.5 °C | -1 °C | -0.2 °C | -0.3 °C | -0.2 °C | -0.6 °C | -0.3 °C | -0.6 °C | deltaT (Mus musculus [19]): -0.6 °C; Activity (Mus musculus [20]): inactive; Activity (Mus musculus [21]): 114; Activity (Mus musculus [22]): 221; deltaT (Mus musculus [23]): -0.6 °C; Activity (Mus musculus [24]; route intraperitoneal): 34%
4 | CCCN(CCC)C1CCc2cccc(O)c2C1 (configuration not stated) [8-OH-DPAT] |  |  |  |  |  |  |  |  |  |  | Activity (Mus musculus [25]): 45%; Activity (Mus musculus [26]): 57%
5 | COc1ccc(-c2c3n(c(=O)n(CCCCN4CCC(c5c(C)[nH]c6ccccc56)CC4)c2=O)CCCC3)cc1 |  | 203 nM |  |  |  |  |  |  |  |  | 
6 | COc1ccc2[nH]cc(C3CCN(CCCCn4c(=O)c(-c5ccccc5F)c5n(c4=O)CCCC5)CC3)c2c1 | 45.6 nM | 184 nM | -0.8 °C | -0.7 °C | -0.4 °C | -0.6 °C | -0.3 °C | -0.7 °C | -0.4 °C | -0.6 °C | deltaT (Mus musculus [27]): -0.4 °C; Activity (Mus musculus [28]): 26%; deltaT (Mus musculus [6]): -1.2 °C; deltaT (Mus musculus [29]): -0.5 °C; Activity (Mus musculus [30]): 272; deltaT (Mus musculus [11]): -0.8 °C; deltaT (Mus musculus [12]): -0.7 °C; deltaT (Mus musculus [15]): -1 °C; Activity (Mus musculus [24]): inactive; Activity (Mus musculus [31]): 520
7 | COc1ccccc1-c1c2n(c(=O)n(CCCCN3CCC(c4c(C)[nH]c5ccccc45)CC3)c1=O)CCCC2 | 1600 nM | 719 nM |  |  |  |  |  |  |  |  | 
8 | Cc1[nH]c2ccccc2c1C1CCN(CCCCn2c(=O)c(-c3ccc(F)cc3)c3n(c2=O)CCCC3)CC1 | 3200 nM | 116 nM |  |  |  |  |  |  |  |  | 
9 | COc1ccc2[nH]cc(C3CCN(CCCCn4c(=O)c(-c5ccc(F)cc5)c5n(c4=O)CCCC5)CC3)c2c1 | 13.9 nM | 76.1 nM |  |  |  |  |  |  |  |  | 
10 | Cc1[nH]c2ccccc2c1C1CCN(CCCCn2c(=O)c(-c3ccc(Cl)cc3)c3n(c2=O)CCCC3)CC1 | 1500 nM | 460 nM |  |  |  |  |  |  |  |  | 
